Measured values from paper PMC10534582, “A Pharmacokinetic Study of Sixteen Major Bioactive Components of Jinshui-Huanxian Granules in Pulmonary Fibrosis Model and Control Rats Using Orbitrap Fusion Mass Spectrometry” (Molecules, 2023).
Read-outs that look alike come from different tables or passages of the source.

Key:
[1] = Pharmacokinetics of JHG components in control rats after intragastric administration of JHGs (plasma, Orbitrap Fusion MS); type: in vivo, Sprague Dawley (SD) rats; conditions: for AUC(0-inf) / AUC(0-t) / half-life / MRT last / MRT inf / Tmax / Cmax: male, rat, plasma, po; for MRT last: read-out: MRT(0-t); for MRT inf: read-out: MRT(0-∞); for Cmax: intragastric JHGs
Procedure: (§1) Healthy male Sprague Dawley (SD) rats of SPF grade (240 ± 20 g) were purchased from Sipeifu (Beijing, China) Biotechnology Co., Ltd. (Beijing, China), Certificate of Conformity No.: SCYK (Beijing, China) 2019-0015, Animal Quality Certificate No.: 110324220102348616. They were housed in the Animal Center of Henan University of Traditional Chinese Medicine, which passed the ethical audit, ethics number: DWLL202208003, breeding Co. 24 °C, relative humidity 50 ± 2%. The animals fasted for 12 h before the experiment and drank water freely. All feeding and experimental studies on experimental animals were in accordance with the regulations on the Management of Experimental Animals in Henan Province.
(§2) Twenty-four healthy male SD rats or PF model rats, weighing 240 ± 20 g, fasted for 12 h before the experiment and drank water freely. Both kinds of rats were randomly divided into four groups. Blank group: equal dose of water by intragastric, low dose; administration group: rats were given the equivalent human dose of JHGs by intragastric, i.e., 10.8 g of raw drug/kg/d (5.70 g/kg/d); medium-dose administration group: 2 times the human equivalent dose of JHGs by intragastric, i.e., 21.6 g of raw drug/kg/d (11.41 g/kg/d); high-dose administration group: 4 times the human equivalent dose of JHG, i.e., 43.2 g of raw drug/kg/d (22.81 g/kg/d). Blood was collected from the tail vein before and 0.083, 0.25, 0.5, 0.75, 1, 1.5, 2, 3, 4, 6, 8, 12, 18, and 24 h after dosing, respectively. A total of 0.5 mL was placed in a heparin sodium centrifuge tube. Whole blood was left for 30 min and then centrifuged in a low-temperature freezing centrifuge (4 °C, 3000 r/min) for 15 min. The upper layer of plasma was collected and stored in a refrigerator at −80 °C.
(§3) We added 50 μL of internal standard solution and 800 μL of methanol, shook for 15 min, then centrifuged at 12,000 r/min for 10 min, took the supernatant, dried in a centrifuge concentrator, added 50 μL of the initial mobile phase to the residue, dissolved, centrifuged, then separated the upper layer of the solution used as the test solution. A total of 5 μL test solution was taken into the sample for analysis. For each compound with a certain dosage, the same procedure is repeated six times in parallel. The concentration in plasma was calculated by the internal standard method.
(§4) Accucore C18 (100 mm × 2.1 mm, 2.6 μm) column at 25 °C, the mobile phase was methanol (A)-0.1% formic acid aqueous solution (B). The gradient elution program was 0–4 min (65% B-40% B), 4–5 min (40% B-40% B), 5–6 min (40% B-28% B), and 6–7 min (28% B-19% B), 7–7.5 min (19% B-10% B), 7.5–11 min (10% B-0% B), the flow rate was 0.2 mL/min, and the injection volume was 5 μL.
The ion source was an electrospray ionization source (ESI). Nitrogen acted as a carrier gas. The sheath gas pressure was 35 Arb. The auxiliary gas pressure was 7 Arb. The spray voltage was 3.50 kv(+), 2.50 kv(-). The ion transport tube temperature was regulated at 300 °C. Gasification temperature was 275 °C. The resolution was 50,000. The scanning mode was set as SIM mode. The optimized parameters obtained are in Table 5.
Under the established Orbitrap Fusion MS method, the pharmacokinetics of JHG in rats were studied to investigate the dynamic changes of the active components in rats. The pharmacokinetic parameters of each component in each dosing group were calculated by […] model analysis using Kinetica 5.1 (Innaphase, Waltham, MA, USA) pharmacokinetic analysis software. The pharmacotemporal curves were plotted by the plotting software. SPSS 19.0 (IBM, Armonk, NY, USA) was used to analyze all the parameters. Independent sample tests were performed after natural logarithmic transformation for AUC0–t, Cmax. The nonparametric Mann–Whitney test was applied for Tmax, t½, and MRT0–t. p < 0.05 was considered statistically significant.

[2] = because of poor gastrointestinal absorption; cited from earlier work
[3] = Pharmacokinetics of JHG components in pulmonary fibrosis (PF) model rats after intragastric administration of JHGs (plasma, Orbitrap Fusion MS); type: in vivo, Sprague Dawley (SD) rats; conditions: for pharmacokinetic process (versus dosage) / Tmax: PF model rats; for pharmacokinetic process (versus dosage): low, medium, high doses of JHGs; for Tmax: male, Sprague-Dawley, rat, plasma, po, after administration of JHGs, read-out: Tmax of all dosages
Procedure: as §1
The PF model in rats was replicated by reference to the conclusion tracheal intubation method in the literature. After the rats were anesthetized, bleomycin (BLM) (5 mg/kg) was used as an induction agent and followed the tracheal intubation method. BLM solution was aspirated with a 1 mL syringe and injected into the indwelling syringe. A total of 0.3 mL of air was rapidly pushed into the syringe, the rats were immediately stroked upright so that the BLM solution was evenly distributed in both lungs. BLM was given on day 0 for modeling, then gavage was taken after day 28, with fasting without water for 12 h before sampling. The histopathological examination was performed to verify the construction of the PF model. The rats were anesthetized by the abdominal cavity, then the lung tissues were violently shocked by opening the chest, and the right lower lobe of the lung was taken and fixed in 4% formaldehyde solution, then dehydrated by sucrose gradient, paraffin-embedded, and sectioned. H&E and Masson staining were performed to observe the degree of alveolitis of lung tissue and the degree of pulmonary fibrosis, respectively. The inflammation and fibrosis of lung tissues was observed under the light microscope.
as §2, §3
as §4, with “μL. […]” for “μL.”

[4] = Sprague Dawley, 5.7 g/kg/day, JHGs low dose 5.70 g/kg/d
[5] = Sprague Dawley, 5.7 g/kg/day, JHGs low dose 5.70 g/kg/d, read-out: Tmax
[6] = Sprague Dawley, 5.7 g/kg/day, low dose 5.70 g/kg/d, n=6 (1st of 3 stacked values)
[7] = Sprague Dawley, 11.41 g/kg/day, JHGs medium dose 11.41 g/kg/d
[8] = Sprague Dawley, 11.41 g/kg/day, JHGs medium dose 11.41 g/kg/d, read-out: Tmax
[9] = Sprague Dawley, 11.41 g/kg/day, medium dose 11.41 g/kg/d, n=6 (2nd of 3 stacked values)
[10] = Sprague Dawley, 22.81 g/kg/day, JHGs high dose 22.81 g/kg/d
[11] = Sprague Dawley, 22.81 g/kg/day, JHGs high dose 22.81 g/kg/d, read-out: Tmax
[12] = Sprague Dawley, 22.81 g/kg/day, high dose 22.81 g/kg/d, n=6 (3rd of 3 stacked values)

pharmacokinetic process (versus dosage) [3] | SMILES | Tmax, PF model group compared with the control group ([3]; PF model vs control rats) | Tmax [3] [h] | Clearances ([1]; JHGs high dose 22.81 g/kg/d) [mL/min/kg] | Vss ([1]; JHGs high dose 22.81 g/kg/d) [L] | Clearances ([1]; JHGs low dose 5.70 g/kg/d) [mL/min/kg] | Vss ([1]; JHGs low dose 5.70 g/kg/d) [L] | Clearances ([1]; JHGs medium dose 11.41 g/kg/d) [mL/min/kg] | Vss ([1]; JHGs medium dose 11.41 g/kg/d) [L] | AUC(0-inf) [1, 4] [ng·h/mL] | AUC(0-t) [1, 4] [ng·h/mL] | half-life [1, 4] [h] | MRT last [1, 4] [h] | MRT inf [1, 4] [h] | Tmax [1, 5] [h] | Cmax [1, 6] [ng/mL] | AUC(0-inf) [1, 7] [ng·h/mL] | AUC(0-t) [1, 7] [ng·h/mL] | half-life [1, 7] [h] | MRT last [1, 7] [h] | other results
linear pharmacokinetic process | CC(C)=CCC[C@](C)(O[C@@H]1O[C@H](CO[C@@H]2OC[C@H](O)[C@H](O)[C@H]2O)[C@@H](O)[C@H](O)[C@H]1O)[C@H]1CC[C@]2(C)[C@@H]1[C@H](O)C[C@@H]1[C@@]3(C)CC[C@H](O[C@@H]4O[C@H](CO)[C@@H](O)[C@H](O)[C@H]4O[C@@H]4O[C@H](CO)[C@@H](O)[C@H](O)[C@H]4O)C(C)(C)[C@@H]3CC[C@]12C [Ginsenoside Rb2] | slightly increased | ≤ 2 |  |  |  |  |  |  |  |  |  |  |  |  |  |  |  |  |  | pharmacokinetic process (Cmax and AUCs versus dosage) ([1]; low, medium, high doses of JHGs): linear pharmacokinetic process; bioavailability, oral administration [2]: low; reduction of Cmax in PF model group relative to control ([3]; PF model vs control rats): about 1/3; Cmax, PF model group compared with the control group ([3]; PF model vs control rats, medium dose selected for comparison): significantly decreased; AUCs, PF model group compared with the control group ([3]; PF model vs control rats, p < 0.05): significantly decreased
 | CC1CCC2N(C1)CC1C3CC4C(CC(=O)C5CC(O)CCC54C)C3CCC1C2(C)O (stereo not drawn) [Peiminine] | decreased significantly |  | 112 ± 30.2 | 67.52 ± 15.96 | 46.2 ± 14 | 28.03 ± 8.27 | 61 ± 18.7 | 40.68 ± 9.67 | 31.9 ± 9.55 | 29.1 ± 8.48 | 6.06 ± 0.22 | 8.01 ± 0.09 | 10.2 ± 0.32 | 4.67 ± 1.15 | 2.91 ± 0.9 | 43.9 ± 16.4 | 38.6 ± 13.2 | 7.97 ± 0.84 | 8.23 ± 0.25 | MRT inf [1, 7]: 11.3 ± 1.03 h; Tmax [1, 8]: 4 h; Cmax [1, 9]: 4.22 ± 1.27 ng/mL; AUC(0-inf) [1, 10]: 46.1 ± 13.7 ng·h/mL; AUC(0-t) [1, 10]: 42 ± 11.7 ng·h/mL; half-life [1, 10]: 6.82 ± 0.57 h; MRT last [1, 10]: 7.84 ± 0.1 h; MRT inf [1, 10]: 10.1 ± 0.42 h; Tmax [1, 11]: 3 h; Cmax [1, 12]: 5.31 ± 1.61 ng/mL
linear pharmacokinetic process | COc1cc(O)c2c(c1)oc(=O)c1c3cc(O)c(O)cc3oc21 [Wedelolactone] |  |  | 0.1 ± 0 | 0.07 ± 0.01 | 0.05 ± 0.017 | 0.04 ± 0 | 0.05 ± 0 | 0.03 ± 0.01 | 139 ± 45.6 | 110 ± 24.7 | 10.7 ± 3.69 | 7.52 ± 0.34 | 14 ± 3.66 | 2 | 18.6 ± 3.98 | 276 ± 35.6 | 242 ± 32.4 | 8.01 ± 1.33 | 8.23 ± 0.18 | MRT inf [1, 7]: 11.6 ± 1.32 h; Tmax [1, 8]: 3.67 ± 0.58 h; Cmax [1, 9]: 27.8 ± 2.35 ng/mL; AUC(0-inf) [1, 10]: 262 ± 13.5 ng·h/mL; AUC(0-t) [1, 10]: 221 ± 17.2 ng·h/mL; half-life [1, 10]: 8.2 ± 0.63 h; MRT last [1, 10]: 7.5 ± 0.21 h; MRT inf [1, 10]: 12 ± 1.32 h; Tmax [1, 11]: 1.83 ± 0.29 h; Cmax [1, 12]: 35.4 ± 2.29 ng/mL; MRT(0–t), PF model group compared with the control group ([3]; PF model vs control rats): decreased

SMILES | pharmacokinetic process (versus dosage) [3] | Tmax, PF model group compared with the control group ([3]; PF model vs control rats) | Tmax [3] [h] | Clearances ([1]; JHGs high dose 22.81 g/kg/d) [mL/min/kg] | Vss ([1]; JHGs high dose 22.81 g/kg/d) [L] | Clearances ([1]; JHGs low dose 5.70 g/kg/d) [mL/min/kg] | Vss ([1]; JHGs low dose 5.70 g/kg/d) [L] | Clearances ([1]; JHGs medium dose 11.41 g/kg/d) [mL/min/kg] | Vss ([1]; JHGs medium dose 11.41 g/kg/d) [L] | AUC(0-inf) [1, 4] [ng·h/mL] | AUC(0-t) [1, 4] [ng·h/mL] | half-life [1, 4] [h] | MRT last [1, 4] [h] | MRT inf [1, 4] [h] | Tmax [1, 5] [h] | Cmax [1, 6] [ng/mL] | AUC(0-inf) [1, 7] [ng·h/mL] | AUC(0-t) [1, 7] [ng·h/mL] | half-life [1, 7] [h] | MRT last [1, 7] [h] | other results
C[C@@H]1O[C@@H](OC[C@H]2O[C@@H](Oc3c(-c4ccc(O)c(O)c4)oc4cc(O)cc(O)c4c3=O)[C@H](O)[C@@H](O)[C@@H]2O)[C@H](O)[C@H](O)[C@H]1O [Rutin] | linear pharmacokinetic process |  | ≤ 2 |  |  |  |  |  |  |  |  |  |  |  |  |  |  |  |  |  | correlation between CL, AUCs (AUC(0–t), AUC (0–∞)), t½, and dose [1]: no correlation; Tmax ([1]; Sprague-Dawley, after administration of JHGs, read-out: Tmax of all dosages): ≤ 2 h
